#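 Test compounds were applied to cells in 96-well plates for 48 hours at 5 doses. GI50 is the concentration that inhibits growth by half. Definition used: TGI = concentration required for complete inhibition of growth.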
# Experiments:
# Test in all cases: growth of human tumour cells (NCI), 48 h
# MCF7 breast = system: MCF7 breast
# SW-620 colon = system: SW-620 colon
# OVCAR-3 ovarian = system: OVCAR-3 ovarian
# TK-10 renal = system: TK-10 renal
# SK-MEL-2 melanoma = system: SK-MEL-2 melanoma
# LOX IMVI melanoma = system: LOX IMVI melanoma
# NCI-H522 lung = system: NCI-H522 lung
# COLO 205 colon = system: COLO 205 colon
# SK-MEL-5 melanoma = system: SK-MEL-5 melanoma
# SR leukemia = system: SR leukemia
SMILES,GI50 (MCF7 breast),TGI (MCF7 breast),GI50 (SW-620 colon),TGI (SW-620 colon),GI50 (OVCAR-3 ovarian),TGI (OVCAR-3 ovarian),GI50 (TK-10 renal),TGI (TK-10 renal),GI50 (SK-MEL-2 melanoma),TGI (SK-MEL-2 melanoma),GI50 (LOX IMVI melanoma),TGI (LOX IMVI melanoma),GI50 (NCI-H522 lung),TGI (NCI-H522 lung),GI50 (COLO 205 colon),TGI (COLO 205 colon),GI50 (SK-MEL-5 melanoma),TGI (SK-MEL-5 melanoma),GI50 (SR leukemia),TGI (SR leukemia)
CC(C)[C@@]12C[C@@H](OC(=O)COC(=O)c3ccccc3)[C@@](C)(O1)[C@@H]1CC[C@@H](C)[C@H]1[C@@H]2OC(=O)/C=C/c1ccccc1,> 65 µM,> 100 µM,> 100 µM,> 100 µM,> 100 µM,> 100 µM,> 100 µM,> 100 µM,> 100 µM,> 100 µM,> 63.4 µM,> 100 µM,> 100 µM,> 100 µM,> 100 µM,> 100 µM,> 100 µM,> 100 µM,–,–
COc1ccc(C2=C(c3ccccc3)C(=O)N3CCCC3C2)cc1 (stereo not given),2.98 µM,> 100 µM,1.24 µM,> 100 µM,57 µM,> 100 µM,12.9 µM,> 100 µM,23.8 µM,> 100 µM,0.115 µM,> 100 µM,0.821 µM,> 100 µM,0.241 µM,> 100 µM,3.17 µM,> 100 µM,–,–
CC(=O)[O-].CC(=O)[O-].O=C([CH-]C(=O)c1ccccc1)c1ccccc1.[Nd+3].[OH3+],–,–,16.3 µM,> 100 µM,10.7 µM,33.5 µM,27 µM,87.6 µM,16.4 µM,50.7 µM,22.4 µM,> 100 µM,13.2 µM,43.6 µM,27.9 µM,> 100 µM,14.5 µM,33.9 µM,–,–
CC1(C)CC[C@]23CC[C@]4(C)[C@H](CC[C@@H]5[C@@]6(C)CCCNC(C)(C)[C@@H]6CC[C@]54C)[C@H]2[C@H]1OC3,1.44 µM,3.01 µM,1.75 µM,3.49 µM,1.62 µM,3.1 µM,1.89 µM,3.61 µM,1.95 µM,4.09 µM,–,–,1.9 µM,3.77 µM,1.28 µM,2.68 µM,1.69 µM,3.06 µM,1.49 µM,4.12 µM
CC(=O)OCc1nnn2c1C(OC(C)=O)CC2 (stereo not given),–,–,–,> 100 µM,–,> 100 µM,–,> 100 µM,–,> 100 µM,–,–,–,> 100 µM,–,> 100 µM,–,> 100 µM,–,> 100 µM
CC(=O)OC(COc1ccc2c(c1)[n+]([O-])nc(N)[n+]2[O-])CN1CCCCC1 (stereo not given),–,65.8 µM,–,> 100 µM,–,38 µM,–,96.4 µM,–,26.4 µM,–,–,–,38.7 µM,–,30.5 µM,–,14.6 µM,–,70.1 µM
CCOC(=O)C(C(=O)OCC)=C1C=C(c2ccccc2)c2ccccc21,–,–,–,> 100 µM,–,> 100 µM,–,> 100 µM,–,> 100 µM,–,> 100 µM,–,–,–,> 100 µM,–,> 100 µM,–,–
CCOC(=O)CCc1c(C)c2c(OC)cc(OC)cc2oc1=O,–,–,–,> 100 µM,–,> 100 µM,–,> 100 µM,–,> 100 µM,–,> 100 µM,–,> 100 µM,–,> 100 µM,–,–,–,–
COC(=O)C1c2cc3c(c(O)c2CCC1(C)O)C(=O)c1c(O)cc2c(c1C3=O)OC1OC2(C)C(O)C(N(C)C)C1O (stereo not given),–,2.5 µM,–,1.08 µM,–,1.62 µM,–,1.66 µM,–,18.8 µM,–,1.4 µM,–,2.81 µM,–,1.73 µM,–,1.73 µM,–,–
N#CC1=C(N)N=C(N2CCOCC2)C(C#N)C12Nc1ccccc1S2 (stereo not given),–,–,23.2 µM,> 100 µM,20.1 µM,58.1 µM,14 µM,49.2 µM,35.2 µM,95 µM,16.5 µM,41.1 µM,17.6 µM,51.5 µM,12.7 µM,52.4 µM,12.5 µM,28.2 µM,9.31 µM,> 100 µM
Cc1ccc(NC(=S)NNC(=S)Nc2ccc(C)cc2)cc1,3.75 µM,> 100 µM,3.81 µM,> 100 µM,2.9 µM,7.51 µM,18.2 µM,> 100 µM,2.66 µM,8.68 µM,6.13 µM,> 100 µM,2.03 µM,5.83 µM,7.6 µM,50 µM,4.36 µM,> 100 µM,–,–
Cc1ccc(C2=NN(c3ccc(S(=O)(=O)NC(=O)NCc4ccccc4)cc3)C(c3ccc(N(C)C)cc3)C2)c(C)c1 (stereo not given),2.99 µM,31.2 µM,3.94 µM,23.7 µM,2.24 µM,4.95 µM,6.46 µM,35.9 µM,3.32 µM,8.85 µM,4.08 µM,14.1 µM,4.48 µM,28.7 µM,3.71 µM,10.4 µM,2.32 µM,5.62 µM,–,–
CCOC(=O)C1=C(C)NC2SC(=O)/C(=C\c3cccc(Cl)c3)N2C1c1ccccc1 (stereo not given),31.2 µM,> 100 µM,> 100 µM,> 100 µM,> 100 µM,> 100 µM,> 100 µM,> 100 µM,> 100 µM,> 100 µM,> 100 µM,> 100 µM,> 100 µM,> 100 µM,> 100 µM,> 100 µM,58.7 µM,> 100 µM,–,–
COc1cc(/C=C2\CC3C4CCC5=CC(=O)CC[C@]5(C)C4CC[C@]3(C)C2=O)ccc1OCCN1CCCC1 (stereo not given in full),4.07 µM,> 45.3 µM,3.09 µM,11.5 µM,2.37 µM,6.01 µM,1.51 µM,3.92 µM,4.21 µM,14.8 µM,2.01 µM,3.97 µM,2.33 µM,5.45 µM,2.04 µM,4.91 µM,1.8 µM,3.5 µM,–,–
CCCCCOC(=O)Nc1nc(=O)n(C2OC(C)C(O)C2O)cc1F (stereo not given),–,–,> 10000 µM,> 10000 µM,–,–,> 10000 µM,> 10000 µM,> 10000 µM,> 10000 µM,–,–,> 10000 µM,> 10000 µM,–,–,338 µM,> 10000 µM,–,–
CCN(N=O)C1C2(CCCC2)NC(=O)C12CCCC2 (stereo not given),–,–,–,> 100 µM,–,> 100 µM,–,> 100 µM,–,–,–,> 100 µM,–,–,–,–,–,–,–,> 100 µM
